# Columns and labels:
# B. subtilis = assay: Disc diffusion sensitivity test; format: cell-based, Bacillus subtilis; settings: for diameter (mm) of the inhibition zone: B. subtilis, disc ~50 μg MP
# E. aerogenes = assay: Disc diffusion sensitivity test; format: cell-based, Enterobacter aerogenes; settings: E. aerogenes; disc ~50 μg MP
# K. pneumoniae = assay: Disc diffusion sensitivity test; format: cell-based, Klebsiella pneumoniae; settings: K. pneumoniae; disc ~50 μg MP
# Ps. aeruginosa = assay: Disc diffusion sensitivity test; format: cell-based, Pseudomonas aeruginosa; settings: disc ~50 μg MP; note: key: -: resistant; N: not determined
# Y. enterocolitica [1] = assay: microbe, parasite or virus in culture; format: cell-based
# E. coli = assay: Disc diffusion sensitivity test; format: cell-based, Escherichia coli; settings: E. coli; disc ~50 μg MP
# F. menigosepticum = assay: Disc diffusion sensitivity test; format: cell-based, Flavobacterium meningosepticum; settings: F. meningosepticum; disc ~50 μg MP
# M. smegmatis [2] = format: cell-based, Mycobacterium smegmatis; settings: M. smegmatis LR222; LB + Tween 80 (Table 2)
# E. faecalis = assay: Disc diffusion sensitivity test; format: cell-based, Enterococcus faecalis; settings: disc ~50 μg MP; note: key: -: resistant; N: not determined
# N. meningitidis = assay: Disc diffusion sensitivity test; format: cell-based; settings: disc ~50 μg MP
# Y. enterocolitica [3] = assay: Disc diffusion sensitivity test; format: cell-based; settings: disc ~50 μg MP
# C. freundii = assay: Disc diffusion sensitivity test; format: cell-based, Citrobacter freundii; settings: C. freundii; disc ~50 μg MP
# S. aureus [4] = assay: Disc diffusion sensitivity test; format: cell-based, Staphylococcus aureus; settings: for diameter (mm) of the inhibition zone: S. aureus, disc ~50 μg MP
# P. mirabills = assay: Disc diffusion sensitivity test; format: cell-based, Proteus mirabilis; settings: P. mirabilis; disc ~50 μg MP
# S. aureus [5] = format: cell-based, Staphylococcus aureus; settings: for Minimal inhibitory concentration (MIC): methicillin-resistant S. aureus IR219, Nutrient broth (Table 2)
# K. oxytoca = assay: Disc diffusion sensitivity test; format: cell-based, Klebsiella oxytoca; settings: K. oxytoca; disc ~50 μg MP
# S. marcescens = assay: Disc diffusion sensitivity test; format: cell-based, Serratia marcescens; settings: S. marcescens; disc ~50 μg MP
# M. bovis = format: cell-based, Mycobacterium bovis; settings: disc ~50 μg MP
# S. crevisieae = assay: Disc diffusion sensitivity test; format: cell-based, Saccharomyces cerevisiae; settings: S. cerevisiae; disc ~50 μg MP
# M. smegmatis [6] = assay: Disc diffusion sensitivity test; format: cell-based, Mycobacterium smegmatis; settings: disc ~50 μg MP
Structure (SMILES),diameter (mm) of the inhibition zone (B. subtilis),diameter (mm) of the inhibition zone (E. aerogenes),diameter (mm) of the inhibition zone (K. pneumoniae),diameter (mm) of the inhibition zone (Ps. aeruginosa),Minimal inhibitory concentration (MIC) (Y. enterocolitica [1]),diameter (mm) of the inhibition zone (E. coli),diameter (mm) of the inhibition zone (F. menigosepticum),Minimal inhibitory concentration (MIC) (M. smegmatis [2]) [µg/mL],diameter (mm) of the inhibition zone (E. faecalis),diameter (mm) of the inhibition zone (N. meningitidis),diameter (mm) of the inhibition zone (Y. enterocolitica [3]),diameter (mm) of the inhibition zone (C. freundii),diameter (mm) of the inhibition zone (S. aureus [4]),diameter (mm) of the inhibition zone (P. mirabills),Minimal inhibitory concentration (MIC) (S. aureus [5]) [µg/mL],diameter (mm) of the inhibition zone (K. oxytoca),diameter (mm) of the inhibition zone (S. marcescens),diameter (mm) of the inhibition zone (M. bovis),further results
C=CC1=C(C)c2cc3[n-]c(cc4nc(cc5[n-]c(cc1n2)c(C)c5CCC(=O)O)C(CCC(=O)O)=C4C)c(C)c3C=C.[Ti+2] [Ti-PPIX],12 mm,-,-,-,> 40,-,-,> 40,-,-,-,-,-,-,40,-,,,
C=CC1=C(C)c2cc3[n-]c(cc4nc(cc5[n-]c(cc1n2)c(C)c5CCC(=O)O)C(CCC(=O)O)=C4C)c(C)c3C=C.[Pd+2] [Pd-PPIX],,-,-,-,> 40,-,-,20,-,-,,-,-,-,50,-,-,-,
C=CC1=C(C)c2cc3[n-]c(cc4nc(cc5[n-]c(cc1n2)c(C)c5C=C)C(C)=C4CCC(=O)O)c(CCC(=O)O)c3C.[Zn+2] [Zn-PPIX],-,,,-,> 40,,,20,-,10 mm,-,,12 mm,,3.2,,-,-,diameter (mm) of the inhibition zone (S. crevisieae): -; diameter (mm) of the inhibition zone (M. smegmatis [6]): -; antibacterial activity (S. aureus [5]; S. aureus): some activity
C=CC1=C(C)C2=Cc3c(C=C)c(C)c4[n]3[Mg][n]3c(c(C)c(CCC(=O)O)c3=CC3=NC(=C4)C(C)=C3CCC(=O)O)=CC1=N2 [Mg-PPIX],,-,-,-,,-,-,,-,-,-,-,,-,,-,,,"zone of inhibition at 50 µg/disc (B. subtilis; Bacillus subtilis, read-out: diameter (mm) of the inhibition zone): 15 mm; zone of inhibition at 50 µg/disc (S. aureus [4]; Staphylococcus aureus, read-out: diameter (mm) of the inhibition zone): 15 mm; MIC (S. aureus [5]; Staphylococcus aureus, read-out: Minimal inhibitory concentration (MIC)): > 10 µg/mL"

# Source: US6066628A, “Non-iron metalloporphyrins and methods of use” (Emory University, priority 1998, dated 2000)
